Results: patent US20070117770A1, “Human ribosomal DNA (rDNA) and ribosomal RNA (rRNA) nucleic acids and uses thereof” (Cylene Pharmaceuticals, Inc., priority 2005, published 2007)

Experiments:
Assay in all cases: Protein kinase inhibition assay
AMPK(r) = assay type: biochemical, rat; settings: 2.5 μM
Method: (§1) Certain compounds were tested for activity in protein kinase inhibition assays. All substrates were dissolved and diluted to working stocks in de-ionized water, apart from histone H1 (10× working stock in 20 mM MOPS pH 7.0), PDKtide (10× working stock in 50 mM Tris pH 7.0) ATF2 (which is typically stored at a 20× working stock in 50 mM Tris pH 7.5, 150 mM NaCl, 0.1 mM EGTA, 0.03% Brij-35, 50% glycerol, 1 mM benzamidine, 0.2 mM PMSF and 0.1% R-mercaptoethanol), KKLNRTLSFAEPG (SEQ ID NO:203) and RRRLSFAEPG (SEQ ID NO:204) (50 mM HEPES pH 7.4) and GGEEEEYFELVKKKK (SEQ ID NO:205) (20 mM MOPS pH 7.0). All kinases were pre-diluted to a 10× working concentration prior to addition into the assay. The composition of the dilution buffer for each kinase is detailed below.
(§2) In a final reaction volume of 25 μl, AMPK (r) (5-10 mU) is incubated with 32 mM HEPES pH 7.4, 0.65 mM DTT, 0.012% Brij-35, 200 μM AMP, 200 μM AMARAASAAALARRR (SEQ ID NO:208), 10 mM MgAcetate and [gamma-33P-ATP] (specific activity approx. 500 cpm/pmol, concentration as required). The reaction is initiated by the addition of the MgATP mix. After incubation for 40 minutes at room temperature, the reaction is stopped by the addition of 5 μl of a 3% phosphoric acid solution. […]

FGFR3(h) = FGFR3(h) (Homo sapiens, UniProt P22607); assay type: biochemical; settings: read-out: percent residual activity of FGFR3(h)
Chain of FGFR3(h) (P22607 23-806): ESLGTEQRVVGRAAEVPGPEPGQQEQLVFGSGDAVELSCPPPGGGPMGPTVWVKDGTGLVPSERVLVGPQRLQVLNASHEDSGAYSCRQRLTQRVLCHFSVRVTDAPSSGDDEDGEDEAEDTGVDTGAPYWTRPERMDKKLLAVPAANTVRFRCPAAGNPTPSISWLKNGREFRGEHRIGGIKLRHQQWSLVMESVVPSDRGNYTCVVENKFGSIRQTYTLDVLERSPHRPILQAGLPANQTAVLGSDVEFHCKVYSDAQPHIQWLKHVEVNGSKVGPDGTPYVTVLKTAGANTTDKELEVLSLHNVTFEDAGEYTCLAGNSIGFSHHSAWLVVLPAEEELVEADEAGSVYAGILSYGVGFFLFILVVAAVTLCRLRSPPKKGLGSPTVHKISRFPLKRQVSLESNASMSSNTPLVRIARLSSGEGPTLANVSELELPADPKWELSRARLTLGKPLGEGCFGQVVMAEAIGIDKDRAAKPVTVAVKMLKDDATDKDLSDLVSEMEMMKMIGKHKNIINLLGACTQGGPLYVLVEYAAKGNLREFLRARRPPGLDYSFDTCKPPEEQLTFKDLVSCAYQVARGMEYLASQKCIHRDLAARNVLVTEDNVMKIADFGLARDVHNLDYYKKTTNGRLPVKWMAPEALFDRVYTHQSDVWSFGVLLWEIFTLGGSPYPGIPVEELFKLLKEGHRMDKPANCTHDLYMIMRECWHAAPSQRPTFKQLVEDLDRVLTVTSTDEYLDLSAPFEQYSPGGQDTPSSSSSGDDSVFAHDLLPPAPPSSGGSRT
Method: as §1
(§3) In a final reaction volume of 25 μl, FGFR3 (h) (5-10 mU) is incubated with 8 mM MOPS pH 7.0, 0.2 mM EDTA, 0.1 mg/ml poly(Glu, Tyr) 4:1, 10 mM MnCl2, 10 mM MgAcetate and [y-33P-ATP] (specific activity approx. 500 cpm/pmol, concentration as required). The reaction is initiated by the addition of the MgATP mix. After incubation for 40 minutes at room temperature, the reaction is stopped by the addition of 5 μl of a 3% phosphoric acid solution. 10 μl of the reaction is then spotted onto a Filtermat A and washed three times for 5 minutes in 75 mM phosphoric acid and once in methanol prior to drying and scintillation counting.

ALK(h) = ALK(h) (Homo sapiens, UniProt Q9UM73); assay type: biochemical; settings: read-out: percent residual activity of ALK(h)
Chain of ALK(h) (Q9UM73 19-1620): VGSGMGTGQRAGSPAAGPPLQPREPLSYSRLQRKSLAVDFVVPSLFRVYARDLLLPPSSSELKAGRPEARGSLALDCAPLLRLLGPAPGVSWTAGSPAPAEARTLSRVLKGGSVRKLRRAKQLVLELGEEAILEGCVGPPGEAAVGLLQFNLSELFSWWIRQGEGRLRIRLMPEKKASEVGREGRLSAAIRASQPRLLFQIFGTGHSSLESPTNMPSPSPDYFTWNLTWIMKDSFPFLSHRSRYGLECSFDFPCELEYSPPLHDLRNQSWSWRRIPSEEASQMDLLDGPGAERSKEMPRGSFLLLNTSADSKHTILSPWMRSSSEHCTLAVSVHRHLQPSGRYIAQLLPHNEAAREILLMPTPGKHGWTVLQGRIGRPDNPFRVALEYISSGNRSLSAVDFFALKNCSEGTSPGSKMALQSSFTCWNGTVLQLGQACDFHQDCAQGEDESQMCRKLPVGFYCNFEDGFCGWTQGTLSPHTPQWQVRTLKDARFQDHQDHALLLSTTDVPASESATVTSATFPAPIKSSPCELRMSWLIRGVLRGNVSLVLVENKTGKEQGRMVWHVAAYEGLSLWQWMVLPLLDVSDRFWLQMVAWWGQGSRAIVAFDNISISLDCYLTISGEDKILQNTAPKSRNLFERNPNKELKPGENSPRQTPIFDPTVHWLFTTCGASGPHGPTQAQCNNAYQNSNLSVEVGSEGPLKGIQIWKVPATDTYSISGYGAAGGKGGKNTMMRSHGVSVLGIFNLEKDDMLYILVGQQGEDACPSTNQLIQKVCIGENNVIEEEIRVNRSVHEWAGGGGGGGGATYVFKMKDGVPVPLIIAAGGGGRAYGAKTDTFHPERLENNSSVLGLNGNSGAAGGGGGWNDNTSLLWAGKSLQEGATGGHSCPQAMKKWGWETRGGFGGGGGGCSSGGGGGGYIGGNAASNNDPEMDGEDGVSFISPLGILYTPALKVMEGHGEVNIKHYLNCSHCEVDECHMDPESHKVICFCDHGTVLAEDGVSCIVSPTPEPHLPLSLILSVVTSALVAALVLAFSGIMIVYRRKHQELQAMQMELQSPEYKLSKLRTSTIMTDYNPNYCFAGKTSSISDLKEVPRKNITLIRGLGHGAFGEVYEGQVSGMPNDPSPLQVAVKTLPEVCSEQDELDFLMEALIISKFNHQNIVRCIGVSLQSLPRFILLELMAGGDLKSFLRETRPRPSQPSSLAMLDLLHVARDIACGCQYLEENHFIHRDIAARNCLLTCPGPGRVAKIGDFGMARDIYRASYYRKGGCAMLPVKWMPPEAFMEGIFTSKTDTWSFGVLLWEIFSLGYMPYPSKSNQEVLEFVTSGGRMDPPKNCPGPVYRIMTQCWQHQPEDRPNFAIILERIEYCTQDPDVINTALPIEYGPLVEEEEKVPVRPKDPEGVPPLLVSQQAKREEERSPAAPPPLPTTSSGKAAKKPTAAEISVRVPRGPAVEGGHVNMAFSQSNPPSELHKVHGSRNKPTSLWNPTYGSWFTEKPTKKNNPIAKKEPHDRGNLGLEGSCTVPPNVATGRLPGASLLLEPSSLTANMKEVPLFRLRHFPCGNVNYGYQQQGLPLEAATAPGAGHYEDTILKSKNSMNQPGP
Method: as §1
as §3, with “ALK” for “FGFR3”, “250 μM KKKSPGEYVNIEFG (SEQ ID NO:207),” for “0.1 mg/ml poly(Glu, Tyr) 4:1, 10 mM MnCl2,”, “[y -33P-ATP]” for “[y-33P-ATP]”, “P30 filtermat” for “Filtermat A”

PKCβII(h) = PKCβII(h) (Homo sapiens, UniProt P05771); assay type: biochemical; settings: read-out: percent residual activity of PKCβII(h)
Chain of PKCβII(h) (P05771 1-673 isoform P05771-2): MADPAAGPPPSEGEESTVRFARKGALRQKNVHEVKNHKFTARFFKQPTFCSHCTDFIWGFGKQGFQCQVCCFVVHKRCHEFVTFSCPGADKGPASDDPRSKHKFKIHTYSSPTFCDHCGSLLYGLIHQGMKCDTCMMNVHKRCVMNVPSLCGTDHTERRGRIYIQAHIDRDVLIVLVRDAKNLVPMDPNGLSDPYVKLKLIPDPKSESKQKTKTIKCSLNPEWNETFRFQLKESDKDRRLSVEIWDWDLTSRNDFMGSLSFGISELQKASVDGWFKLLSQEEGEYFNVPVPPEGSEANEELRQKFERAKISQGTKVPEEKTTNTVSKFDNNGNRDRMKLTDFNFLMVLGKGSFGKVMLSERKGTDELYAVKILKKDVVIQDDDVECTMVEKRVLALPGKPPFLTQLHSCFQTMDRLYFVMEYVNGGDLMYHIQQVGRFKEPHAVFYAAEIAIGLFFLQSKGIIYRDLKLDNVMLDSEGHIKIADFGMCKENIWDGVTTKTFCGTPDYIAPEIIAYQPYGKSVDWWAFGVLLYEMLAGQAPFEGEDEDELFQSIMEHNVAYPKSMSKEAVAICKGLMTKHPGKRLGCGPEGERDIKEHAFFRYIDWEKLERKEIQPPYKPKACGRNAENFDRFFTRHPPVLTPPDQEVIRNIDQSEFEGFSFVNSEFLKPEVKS
Method: as §1
as §2, with “PKCβII (h)” for “AMPK (r)”, “20” for “32”, “0.03% Triton X-100, […], 0.1 mg/ml phosphatidylserine, 10 μg/ml diacylglycerol, 0.1 mg/ml histone H1,” for “0.65 mM DTT, 0.012% Brij-35, 200 μM AMP, 200 μM AMARAASAAALARRR (SEQ ID NO:208),”

Arg(m) = Arg(m) (Mus musculus, UniProt Q4JIM5); assay type: biochemical; settings: read-out: percent residual activity of Arg(m)
Chain of Arg(m) (Q4JIM5 whole entry): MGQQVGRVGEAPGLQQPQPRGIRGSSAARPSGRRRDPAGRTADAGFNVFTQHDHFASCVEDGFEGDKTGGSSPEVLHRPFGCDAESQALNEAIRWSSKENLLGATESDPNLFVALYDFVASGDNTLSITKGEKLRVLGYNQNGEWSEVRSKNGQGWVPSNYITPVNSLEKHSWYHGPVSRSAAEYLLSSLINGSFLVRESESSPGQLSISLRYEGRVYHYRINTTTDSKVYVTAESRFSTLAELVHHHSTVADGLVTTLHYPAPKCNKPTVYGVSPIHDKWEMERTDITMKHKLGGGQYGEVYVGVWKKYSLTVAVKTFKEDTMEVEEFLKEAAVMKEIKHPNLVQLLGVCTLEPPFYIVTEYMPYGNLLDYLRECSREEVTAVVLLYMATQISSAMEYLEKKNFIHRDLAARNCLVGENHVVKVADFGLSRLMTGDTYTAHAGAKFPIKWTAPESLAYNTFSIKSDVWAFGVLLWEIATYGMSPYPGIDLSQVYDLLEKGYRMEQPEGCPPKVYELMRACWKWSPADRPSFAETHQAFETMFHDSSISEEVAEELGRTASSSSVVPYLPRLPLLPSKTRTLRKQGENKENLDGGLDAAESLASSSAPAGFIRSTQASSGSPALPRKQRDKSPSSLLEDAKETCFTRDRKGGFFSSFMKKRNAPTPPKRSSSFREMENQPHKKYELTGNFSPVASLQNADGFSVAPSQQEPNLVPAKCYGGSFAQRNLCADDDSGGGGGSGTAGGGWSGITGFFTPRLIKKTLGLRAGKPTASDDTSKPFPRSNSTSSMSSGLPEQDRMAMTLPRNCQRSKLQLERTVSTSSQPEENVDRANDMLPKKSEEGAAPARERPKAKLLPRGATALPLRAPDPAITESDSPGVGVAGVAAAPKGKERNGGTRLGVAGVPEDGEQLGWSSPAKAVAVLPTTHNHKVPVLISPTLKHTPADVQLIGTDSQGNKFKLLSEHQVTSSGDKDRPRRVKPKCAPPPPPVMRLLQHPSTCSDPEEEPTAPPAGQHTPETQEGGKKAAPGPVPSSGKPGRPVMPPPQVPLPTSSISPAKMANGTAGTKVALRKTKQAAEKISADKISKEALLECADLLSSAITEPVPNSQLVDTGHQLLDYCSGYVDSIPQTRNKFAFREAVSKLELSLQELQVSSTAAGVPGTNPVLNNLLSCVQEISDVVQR
Method: as §1
as §3, with “Arg (m)” for “FGFR3 (h)”, “50 μM EAIYAAPFAKKK (SEQ ID NO:206),” for “0.1 mg/ml poly(Glu, Tyr) 4:1, 10 mM MnCl2,”, “[gamma-33P-ATP]” for “[y-33P-ATP]”, “P30 filtermat” for “Filtermat A”

PKCγ(h) = PKCγ(h) (Homo sapiens, UniProt P05129); assay type: biochemical; settings: read-out: percent residual activity of PKCγ(h)
Method: as §1
as §2, with “PKCγ (h)” for “AMPK (r)”, “20” for “32”, “0.03% Triton X-100, […], 0.1 mg/ml phosphatidylserine, 10 μg/ml diacylglycerol, 0.1 mg/ml histone H1,” for “0.65 mM DTT, 0.012% Brij-35, 200 μM AMP, 200 μM AMARAASAAALARRR (SEQ ID NO:208),”

| SMILES | percent residual activity of AMPK(r) (AMPK(r)) | remaining activity at 2.5 µM (FGFR3(h)) | remaining activity at 2.5 µM (ALK(h)) | remaining activity at 2.5 µM (PKCβII(h)) | remaining activity at 2.5 µM (Arg(m)) | remaining activity at 2.5 µM (PKCγ(h)) |
| --- | --- | --- | --- | --- | --- | --- |
| CN1CCCC1CCNC(=O)c1cn2c3c(c(N4CCC(c5cnccn5)C4)c(F)cc3c1=O)Oc1cc3ccccc3cc1-2 (stereo not drawn) [Compound A-1] | 82% | 101% | 69% | 94% | 43% | 110% |
| CC(=O)N1CCN(c2ccc3c(=O)c(C(=O)NCCN4CCCC4)c4n(C)c5ccccc5n4c3n2)CC1 [Compound B-1] | 95% | 116% | 97% | 99% | 102% | 102% |
